Experimental findings from patent publication US20180023041A1, “CLEANING COMPOSITIONS CONTAINING A DIAMINOSTILBENE BRIGHTENER” (The Procter & Gamble Company, priority 2016, published 2018) are described below.

The nature of the series: Dissolution of brightener from granular laundry detergent formulations in hardness water, UV-Vis absorbance of filtered solution at 350 nm. Conditions: in comparison with the control formulation with LAS only; in words. The class given is physicochemical.

Protocol: The total surfactant levels for Formulations A-H are maintained the same at 20 wt %.
Prepare 10 gpg hardness water (Ca:Mg=3:1) and place 1L of such hardness water in each of 8 beakers separately. Weight a 6.12g sample from each of the Formulations A-H hereabove respectively, and put the samples into beakers with hardness water on the maganetic stirrers. Stir for 15 mins to dissolve the sample.
Take about 8 ml solution by using a 10m1 injection syringe. Install a 0.45pm filter on the injection syringe for filtering the solution when it is injected out of the syringe. Inject the filtered solution into a sample cuvette of the UV-Vis spectrophotometer. Place the sample cuvette in a measuring position of the UV-Vis spectrophotometer. Read and record the absorbance (ABS) of solutions at a UV wavelength of 350nm respectively.

Turning to `O=S(=O)([O-])c1ccccc1C=Cc1ccc(-c2ccc(C=Cc3ccccc3S(=O)(=O)[O-])cc2)cc1.[Na+].[Na+]` [Florescent Brigthener 351, disodium 2,2′-([1,1′-biphenyl]-4,4′-diyldivinylene)bis(benzenesulphonate)], the “dissolution of the brightener in a surfactant system containing LAS, mid-cut AS, and soap” value was “much less”.
